The conditions of data set [1]: rcm bond, 15-membered ring, Hoveyda-Grubbs II (5 mol%), DCE, 80.0 °C.
For data set [2] the following is noted: from C=CCC[C@@H](C)O[C@@H](C)C(NC(=O)OC(C)(C)C)C(=O)N1C[C@H](Oc2nccc3cc(OC)ccc23)C[C@H]1C(=O)N[C@]1(C(=O)NS(=O)(=O)C2(C)CC2)C[C@H]1C=C; rcm bond; 15-membered ring; Hoveyda-Grubbs II (5 mol%); DCE; 7.2 mM; 80.0 °C; 2.0 h.
Data set [3] concerns HCV genotype 1a (H77 strain) replicon in HUH-7 cells. Description: HCV replicon luciferase reporter assay, genotype 1a. In kind it is cell-based. Particulars: Hepatitis C virus, 72 h, genotype 1a replicon, 3 days incubation, read-out: LE_1a (EC50, range). In outline: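 Stable HUH-7 line carrying luciferase-reporter genotype 1a (H77) replicon with adaptive NS3 P1496L and NS5A S2204I mutations; 3.0×10^3 cells/well in 4% FCS, 0.5% DMSO, twenty-point 3-fold titration, 3 days at 37 °C. Renilla luminescence with 7.5 μM EnduRen; EC50 by four-parameter logistic fit; CC50 by multiplexed Cell Titer-Blue.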
(In antiviral work, replicon cells carry a viral genome segment that copies itself.)

The test system of data set [4] is HCV genotype 1b (Con1) replicon in HUH-7 cells. Description: HCV replicon luciferase reporter assay, genotype 1b. The data set is classed as cell-based. The settings on record: Hepatitis C virus, 72 h, genotype 1b replicon, 3 days incubation, read-out: LE_1b (EC50, range). The method, boiled down:
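The HUH-7 cells stably carried a genotype 1b Con1 replicon with a Renilla luciferase reporter and the S1179I adaptive mutation. Luminescence was read after 2 h with 7.5 μM EnduRen, and EC50s came from four-parameter logistic fits.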

Data on seven compounds can be found in patent US9598433B2, “Hepatitis C virus inhibitors” (BRISTOL-MYERS SQUIBB COMPANY, priority 2012, dated 2017).

Read-outs that look alike come from different tables or passages of the source.

For the compound `CC[C@@H]1OCCC/C=C\[C@@H]2C[C@@]2(C(=O)NS(=O)(=O)C2(C)CC2)NC(=O)[C@@H]2C[C@@H](O)CN2C(=O)[C@H]1NC(=O)OC(C)(C)C`, the ring closure, isolated yield in data set [1] (from C=CCCCO[C@@H](CC)[C@H](NC(=O)OC(C)(C)C)C(=O)N1C[C@H](O)C[C@H]1C(=O)N[C@]1(C(=O)NS(=O)(=O)C2(C)CC2)C[C@H]1C=C, 7.5 mM, 74.0 h) stood at 22%. Take `CC[C@@H]1O[C@H](C)CC/C=C\[C@@H]2C[C@@]2(C(=O)NS(=O)(=O)C2(CF)CC2)NC(=O)[C@@H]2C[C@@H](O)CN2C(=O)[C@H]1NC(=O)OC(C)(C)C`: the ring closure, isolated yield in data set [1] (from C=CCC[C@@H](C)O[C@@H](CC)[C@H](NC(=O)OC(C)(C)C)C(=O)N1C[C@H](O)C[C@H]1C(=O)N[C@]1(C(=O)NS(=O)(=O)C2(CF)CC2)C[C@H]1C=C, 9.2 mM, 16.0 h) came to 22%. In data set [1] (from C=CCC[C@@H](C)O[C@@H](CC)[C@H](NC(=O)OC(C)(C)C)C(=O)N1C[C@H](O)C[C@H]1C(=O)N[C@]1(C(=O)NS(=O)(=O)C2CC2)C[C@H]1C=C, 9.8 mM, 4.0 h), `CC[C@@H]1O[C@H](C)CC/C=C\[C@@H]2C[C@@]2(C(=O)NS(=O)(=O)C2CC2)NC(=O)[C@@H]2C[C@@H](O)CN2C(=O)[C@H]1NC(=O)OC(C)(C)C` yielded a ring closure, isolated yield of 54%. `CC[C@@H]1O[C@H](C)CCC=C[C@@H]2C[C@@]2(C(=O)NS(=O)(=O)C2(C)CC2)NC(=O)[C@@H]2C[C@@H](O)CN2C(=O)[C@H]1NC(=O)OC(C)(C)C` showed a ring closure, isolated yield in data set [1] (from C=CCC[C@@H](C)O[C@@H](CC)[C@H](NC(=O)OC(C)(C)C)C(=O)N1C[C@H](O)C[C@H]1C(=O)N[C@]1(C(=O)NS(=O)(=O)C2(C)CC2)C[C@H]1C=C, 8.7 mM, 74.0 h, 5 steps) of 10%. The compound `C[C@@H]1CC/C=C\[C@@H]2C[C@@]2(C(=O)NS(=O)(=O)C2(C)CC2)NC(=O)[C@@H]2C[C@@H](O)CN2C(=O)[C@@H](NC(=O)OC(C)(C)C)[C@H](C)O1` had a ring closure, isolated yield in data set [1] (from C=CCC[C@@H](C)O[C@@H](C)[C@H](NC(=O)OC(C)(C)C)C(=O)N1C[C@H](O)C[C@H]1C(=O)N[C@]1(C(=O)NS(=O)(=O)C2(C)CC2)C[C@H]1C=C, 8.0 mM, 2.0 h) of 24%.

Usually EC50 stands for the concentration at which the effect is half-maximal. In turn, `COc1ccc2c(O[C@@H]3C[C@H]4C(=O)N[C@]5(C(=O)NS(=O)(=O)C6(C)CC6)C[C@H]5/C=C\CC[C@@H](C)O[C@@H](C)[C@H](NC(=O)OC(C)(C)C)C(=O)N4C3)nccc2c1` [Compound 2001, tert-butyl ((2R,6S,7S,9R,13aS,14aR,16aS,Z)-2-((6-methoxyisoquinolin-1-yl)oxy)-7,9-dimethyl-14a-(((1-methylcyclopropyl)sulfonyl)carbamoyl)-5,16-dioxo-2,3,5,6,7,9,10,11,13a,14,14a,15,16,16a-tetradecahydro-1H-cyclopropa[i]pyrrolo[1,2-e][1,5,8]oxadiazacyclopentadecin-6-yl)carbamate] yielded a ring closure, yield after HPLC in data set [2] of 30%. For the same compound, the EC50 in data set [3] and in data set [4] was 1.01 to 5 nM each time. On to `CC[C@@H]1O[C@H](C)CC/C=C\[C@@H]2C[C@@]2(C(=O)NS(=O)(=O)C2(C)CC2)NC(=O)[C@@H]2C[C@@H](Oc3ncc(OC)c4ccccc34)CN2C(=O)[C@H]1NC(=O)OC(C)(C)C(F)F` [Compound 2618, 1,1-difluoro-2-methylpropan-2-yl ((2R,6S,7S,9R,13aS,14aR,16aS,Z)-7-ethyl-2-((4-methoxyisoquinolin-1-yl)oxy)-9-methyl-14a-(((1-methylcyclopropyl)sulfonyl)carbamoyl)-5,16-dioxo-2,3,5,6,7,9,10,11,13a,14,14a,15,16,16a-tetradecahydro-1H-cyclopropa[i]pyrrolo[1,2-e][1,5,8]oxadiazacyclopentadecin-6-yl)carbamate], for which the EC50 in data set [3] and in data set [4] was 0.1 to 0.5 nM throughout.
